Assay results published in patent US20230404081A1, “A FORMULATION AND A METHOD FOR INDUCING DEFENSE RESPONSE IN PLANTS” (NATIONAL INSTITUTE OF PLANT GENOME RESEARCH, priority 2020, published 2023).

Legend:
tomato leaves = assay: Hypersensitive response like symptoms on tomato leaves under sodium dithionite coated Whatman filter paper stickers; format: in vivo; details: tomato leaves (Pusa Rubi), stickers on adaxial surface for 3 hours, followed till 24 h
Procedure: To check whether sodium dithionite is able to induce plants innate immune response, square stickers from Whatman filter papers were coated with sodium dithionite under anoxic conditions (FIG. 4). These stickers were stacked on the adaxial surface of tomato leaves for 3 hours (FIG. 5). The variety of the tomato plant used for the purposes of present disclosure is Pusa Rubi accessed from Indian Agricultural Research Institute, New Delhi, India.

nitric oxide (NO) = format: in vivo, tomato
salicylic acid (SA) = assay: Salicylic acid (SA) estimation in distal leaves; details: distal leaf samples, 6h post-sodium dithionite treatment, vs control plants
Procedure: Since salicylic acid (SA) is important in the induction of systemic acquired resistance in plants, the distal leaf samples were collected for SA estimation at 6h post-sodium dithionite treatment.

`O=S([O-])S(=O)[O-].[Na+].[Na+]` [sodium dithionite] was tested, and the “hypersensitive response like symptoms” value (tomato leaves) was “Hypersensitive response like symptoms started developing just after the treatment and was increased till 24 h”, the “NO levels (DAF-FM DA) after further treatment with avirulent Pseudomonas syringae” value (nitric oxide (NO); in vivo) was “Larger spots representing bursts of NO were observed” and the “NO production (DAF-FM DA)” value (nitric oxide (NO); tomato leaves treated with sodium dithionite strips alone) was “Increased microbursts of NO”. The “SA accumulation in distal leaves” value (salicylic acid (SA)) was “significant accumulation of SA”.
